Patent US11896558B2, “Use of an RXR agonist and taxanes in treating Her2+ cancers” (Io Therapeutics, Inc., priority 2021, dated 2024)
“Also recorded” adds a separate entry of the source.

Legend:
[1] = tested on: FXR/RXR; assay: Activation of FXR/RXR heterodimer; details: permissive heterodimer
[2] = molecular target: RARβ (Homo sapiens, UniProt P10826); details: β isoform
[3] = molecular target: RARγ (Homo sapiens, UniProt P13631); details: γ isoform
[4] = tested on: RXR homodimers; assay: Activation of RXR homodimers; assay type: cell-based
[5] = Systemic concentrations after oral dosing in humans
[6] = tested on: PPAR/RXR; assay: Activation of PPAR/RXR heterodimer; assay type: cell-based; details: permissive heterodimer
[7] = tested on: Her2+ AU565 human breast cancer cell line; assay: Growth inhibition of AU565 cells, nuclei count; assay type: cell-based; details: paclitaxel 2.5, 5 or 10 nM, IRX4204 10, 100 or 1000 nM, 6-10 days
Description: After 6-10 days of treatment, cells were fixed with 4% paraformaldehyde. Nuclei were stained with DAPI, imaged using ImageXpress® Pico (Molecular Devices) and counted using CellReporterXpress® Analysis Software. Each data point represents the average of six replicates.
To assess whether the increased inhibition from the combination of agents was additive or synergistic, the Combination Index (CI) was calculated using the computational program CompuSyn (ComboSyn, Inc.).

[8] = tested on: Nurr1/RXR heterodimer; assay: Activation of Nurr1/RXR heterodimer; details: permissive heterodimer
[9] = molecular target: RARα (Homo sapiens, UniProt P10276); details: α isoform
Chain of RARα (P10276 whole entry, species assumed, canonical isoform): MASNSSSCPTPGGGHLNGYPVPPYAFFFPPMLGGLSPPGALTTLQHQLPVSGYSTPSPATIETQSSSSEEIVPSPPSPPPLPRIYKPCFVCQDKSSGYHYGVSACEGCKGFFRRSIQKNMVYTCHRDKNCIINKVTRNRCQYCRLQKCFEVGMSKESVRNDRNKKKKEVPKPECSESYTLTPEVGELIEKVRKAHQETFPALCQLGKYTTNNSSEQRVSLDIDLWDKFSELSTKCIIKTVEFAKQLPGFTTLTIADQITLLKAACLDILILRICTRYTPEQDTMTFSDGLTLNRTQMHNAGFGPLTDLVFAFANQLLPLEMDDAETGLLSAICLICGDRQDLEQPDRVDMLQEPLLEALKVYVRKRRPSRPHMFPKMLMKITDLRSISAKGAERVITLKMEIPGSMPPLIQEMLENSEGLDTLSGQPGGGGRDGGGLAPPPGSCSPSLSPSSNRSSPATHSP

[10] = tested on: LXR/RXR; assay: Activation of LXR/RXR heterodimer; assay type: cell-based; details: permissive heterodimer
[11] = tested on: RAR/RXR; assay: Activation of non-permissive RAR/RXR heterodimer; assay type: cell-based
[12] = Daily dosing of IRX4204 free acid in adult human; assay type: in vivo
[13] = tested on: PPAR/RXR, FXR/RXR, or LXR/RXR; details: cited from earlier work
[14] = tested on: NSCLC (non-small cell lung cancer); details: cited from earlier work

Chain of RARβ (P10826 whole entry, species assumed, canonical isoform): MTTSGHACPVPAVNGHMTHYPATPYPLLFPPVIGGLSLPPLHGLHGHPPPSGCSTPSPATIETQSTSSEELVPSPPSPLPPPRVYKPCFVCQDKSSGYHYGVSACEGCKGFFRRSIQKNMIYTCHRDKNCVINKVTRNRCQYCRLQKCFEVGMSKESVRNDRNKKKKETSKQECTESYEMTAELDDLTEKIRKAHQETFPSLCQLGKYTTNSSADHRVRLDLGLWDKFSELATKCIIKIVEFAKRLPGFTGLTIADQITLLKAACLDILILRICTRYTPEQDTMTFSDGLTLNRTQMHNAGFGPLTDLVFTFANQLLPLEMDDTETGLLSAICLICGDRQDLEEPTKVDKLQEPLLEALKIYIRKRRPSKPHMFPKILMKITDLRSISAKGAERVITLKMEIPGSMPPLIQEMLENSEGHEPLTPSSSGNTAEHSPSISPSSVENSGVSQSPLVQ
Chain of RARγ (P13631 whole entry, species assumed, canonical isoform): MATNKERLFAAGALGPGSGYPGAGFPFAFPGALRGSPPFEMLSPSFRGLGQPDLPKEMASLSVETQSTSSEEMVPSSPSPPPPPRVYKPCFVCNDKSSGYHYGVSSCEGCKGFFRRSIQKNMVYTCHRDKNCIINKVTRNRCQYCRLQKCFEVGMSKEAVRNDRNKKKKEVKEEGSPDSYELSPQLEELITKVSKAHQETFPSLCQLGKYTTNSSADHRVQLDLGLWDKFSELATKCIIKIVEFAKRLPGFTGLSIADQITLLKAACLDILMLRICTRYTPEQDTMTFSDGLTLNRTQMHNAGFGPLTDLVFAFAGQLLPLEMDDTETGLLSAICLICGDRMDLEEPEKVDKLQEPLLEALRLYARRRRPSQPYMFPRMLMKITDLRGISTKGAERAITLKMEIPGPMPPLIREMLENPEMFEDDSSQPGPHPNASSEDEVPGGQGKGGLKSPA

For `CC(/C=C/[C@@H]1C[C@]1(C)c1ccc2c(c1)C(C)(C)CCC2(C)C)=C\C(=O)O` [IRX4204, 3,7-dimethyl-6(S),7(S)-methano,7-[1,1,4,4-tetramethyl-1,2,3,4-tetrahydron-aphth-7-yl]2(E), 4(E) heptadienoic acid], the “activation of FXR/RXR heterodimer” value [1] was “does not activate”, the “RAR EC10 (concentration effective to cause a 10% of maximal activation of the RAR)” value [2] was 0.2 µM and the “RAR EC10 (concentration effective to cause a 10% of maximal activation of the RAR)” value [3] was 0.2 µM. The “activation of RXR homodimers” value [4] was “specifically activate”, the systemic concentrations ([5]; oral dosage 0.01 to 0.02 mg/m^2/day, estimated) was “at least 0.1 nM” and the systemic concentrations ([5]; oral dosage 20 mg/m^2/day, based on studies in humans) was “below 200 nM”. The “activation of PPAR/RXR heterodimer” value [6] was “does not activate”, the “growth inhibition as sole agent” value [7] was “sensitive; also recorded: near maximal effect” and the “activation of Nurr1/RXR heterodimer” value [8] was “specifically activates”. The “RAR EC10 (concentration effective to cause a 10% of maximal activation of the RAR)” value [9] was 0.3 µM, the “activation of LXR/RXR heterodimer” value [10] was “does not activate” and the “activation of RAR/RXR heterodimer” value [11] was “does not activate”. The hypothyroidism ([12]; 10 mg/day free acid) was “does not result in hypothyroidism” and the hypothyroidism ([12]; 20 mg/day free acid) was “may induce a mild hypothyroidism”.

For `Cc1cc2c(cc1C1(c3ccc(C(=O)O)cn3)CC1)C(C)(C)CCC2(C)C` [LGD268], the “activation of one or more of PPAR/RXR, FXR/RXR, or LXR/RXR” value [13] is given as “activates one or more of PPAR/RXR, FXR/RXR, or LXR/RXR”.

For `C=C(c1ccc(C(=O)O)cc1)c1cc2c(cc1C)C(C)(C)CCC2(C)C` [TARGRETIN, bexarotene], the “survival in pivotal Phase III clinical study” value ([14]; NSCLC) is listed as “did not show increased survival” and the “results of Phase II studies” value ([14]; several Phase II studies in NSCLC) is listed as “Encouraging results”.

With `CC(=O)O[C@H]1C(=O)[C@@]2(C)[C@H]([C@H](OC(=O)c3ccccc3)[C@]3(O)C[C@H](OC(=O)[C@H](O)[C@@H](NC(=O)c4ccccc4)c4ccccc4)C(C)=C1C3(C)C)[C@]1(OC(C)=O)CO[C@@H]1C[C@@H]2O` [paclitaxel, Paclitaxel, reference compound] the “growth inhibition as sole agent” value [7] was “sensitive”.
